According to patent US20230141569A1, “FLUORESCENT DYE, AND PREPARATION METHOD AND USES THEREOF” (FLUORESCENCE DIAGNOSIS (SHANGHAI) BIOTECH COMPANY LTD., priority 2020, published 2023):

Legend:
[1] = Fluorescence emission at different viscosity conditions, diethanol-glycerol mixed solution (Test Example 2); format: physicochemical; settings: 1×10^−5 M, excited at 480 nm
[2] = Viscosity response: fluorescence in glycerin vs methanol (Test Example 1); format: physicochemical; settings: final concentration 1×10^−5 M; for Glycerin/Methanol Fluorescence Intensity Ratio: excited at maximum excitation wavelength of each dye; for Maximum Excitation Wavelength (nm): glycerin and methanol
[3] = test system: RNA aptamer; experiment: Optical properties after binding to RNA aptamer (Test Example 4); format: biochemical; settings: for Em/nm / Ex/nm / ε / QY (−): after binding to RNA aptamer; for QY (−): relative method with Rhodamine 6G as the standard; for compound fluorescence after binding to RNA aptamer: excited at a suitable wavelength
[4] = test system: RNA aptamer; experiment: Labeling intracellular RNA aptamer in cells (Test Example 4, FIG. 20A/20B); format: cell-based; settings: for fluorescence of cells expressing the RNA aptamer: FIG. 20A; for fluorescence of cells not expressing the RNA aptamer: FIG. 20B
Excerpt: FIGS. 20A and 20B are the application of molecular rotors IV-1, IV-2, IV-3, IV-4, IV-5, IV-6, IV-17, IV-18, IV-19, IV-20, IV-21, IV-22 in labeling intracellular RNA aptamer, wherein FIG. 20A are cells expressing the target RNA aptamer, and FIG. 20B are cells not expressing the target RNA aptamer;

[5] = test system: mRNA of ACTB; experiment: Flow detection of mRNA labeling in 293T/17 cells (Test Example 5); format: cell-based; settings: 0.2 μM in PBS, 5 minutes incubation; for background fluorescence in flow detection: 293T/17 control cells
Excerpt: FIGS. 21A and 21B are a flow detection diagram for molecular rotors IV-21 and IV-41 for labeling mRNA.

| Glycerin/Methanol Fluorescence Intensity Ratio [2] | Maximum Excitation Wavelength (nm) [2] [nm] | Em/nm [3] [nm] | Ex/nm [3] [nm] | ε [3] [M⁻¹ cm⁻¹] | QY (−) [3] | compound fluorescence after binding to RNA aptamer [3] | Structure (SMILES) | fluorescence intensity at different viscosity conditions [1] | fluorescence of cells expressing the RNA aptamer [4] | fluorescence of cells not expressing the RNA aptamer [4] | labeling of mRNA of ACTB in cell lines expressing target RNA ([5]; 293T/17, flow detection) | background fluorescence in flow detection [5] |
| --- | --- | --- | --- | --- | --- | --- | --- | --- | --- | --- | --- | --- |
| – | – | – | – | – | – | – | CN1C(=O)/C(=C/c2ccc(N(C)CCO)cc2)N=C1/C=C/c1ccccc1 [IV-41, reference compound] | – | – | – | – | higher than that of IV-21 |
| 921 | 578 | 578 | 490 | 24000 | 0.37 | noticeably activated | CN1C(=O)/C(=C/c2cc(F)c(O)c(F)c2)N=C1/C=C/c1cccc(F)c1 [IV-6] | gradually increasing fluorescence intensity | bright fluorescence | no fluorescence | – | – |
| 655 | 575 | 582 | 524 | 32000 | 0.47 | noticeably activated | CN1C(=O)/C(=C/c2ccc(N(C)CCO)cc2)N=C1/C=C/c1cccc(O)c1 [IV-17] | gradually increasing fluorescence intensity | bright fluorescence | no fluorescence | – | – |

| Structure (SMILES) | Glycerin/Methanol Fluorescence Intensity Ratio [2] | Maximum Excitation Wavelength (nm) [2] [nm] | Em/nm [3] [nm] | Ex/nm [3] [nm] | ε [3] [M⁻¹ cm⁻¹] | QY (−) [3] | compound fluorescence after binding to RNA aptamer [3] | fluorescence intensity at different viscosity conditions [1] | fluorescence of cells expressing the RNA aptamer [4] | fluorescence of cells not expressing the RNA aptamer [4] | labeling of mRNA of ACTB in cell lines expressing target RNA ([5]; 293T/17, flow detection) | background fluorescence in flow detection [5] |
| --- | --- | --- | --- | --- | --- | --- | --- | --- | --- | --- | --- | --- |
| CN1C(=O)/C(=C/c2ccc(N(C)CCO)cc2)N=C1/C=C/c1ccc(C#N)cc1 [IV-21] | 655 | 624 | 624 | 534 | 26222 | 0.28 | noticeably activated | gradually increasing fluorescence intensity | bright fluorescence | no fluorescence | could specifically label mRNA of ACTB | no obvious background fluorescence |
